These results are taken from US11338004B2, “Composition for preventing or treating cranial nerve disease comprising fomes fomentarius extract, fraction thereof, or compound isolated therefrom as active ingredient” (priority 2015, dated 2022).

Each structure is given as a SMILES string.

One assay concerns IL-6. The experiment in a line: IL-6 in LPS-treated BV2 cells. The class given is cell-based, mouse. On the set-up: unit not given here. The protocol: (§1) A mouse BV2 cell line was stored and maintained in a humidified incubator at 37° C. under a 5% CO2 condition using a DMEM culture medium supplemented with 10% FBS, 100 U/ml of penicillin and 100 μg/ml of streptomycin, was trypsinized, and was subcultured.
(§2) BV2 cells were placed in a 6-well plate at 7.5×10^5 cells/well, and stabilized at 37° C. and 5.0% CO2 for 12 hours. After that, LPS and the Fomes fomentarius CHCl3 fractions, the nonadecanone (2-Nonadecanone) or the docosenol (cis-13-Docosenol) compounds were placed according to groups and were incubated for 1 hour. The cell culture was collected and used for cytokine analysis. All the cell culture was removed, and then 1 ml of dPBS was dispensed to each well to wash and remove the wells. 200 μl of the lysis buffer was dispensed per well and the cells attached to the bottom of the well were removed with a cell scriper, and then were slowly mixed and reacted for […] on ice at 4° C. The cells were removed with a scriper again and all the lysis solution was collected. The collected lysis solution was centrifuged at 15,000 rpm for 15 minutes at 4° C. so that only the supernatant was collected. In order to plot standard curves for protein quantification, a standard BSA solution ([…]) and a dilution were prepared in which bradford solution and D.W. were diluted with 4:1. After the bradford dilution was dispensed in each 200 μl to 96-well, the standard BSA solution and the cell lysis supernatant were dispersed in a volume of 10 μl per well, and then they were mixed by pipetting. After 10 minutes, the protein was quantitated by measuring the absorbance at 595 nm in a reader. The subsequent procedures were carried out in the same manner as in the quantitative analysis of the protein of Example 3-3.

The next assay has as its system TNF-α. The experiment in a line: TNF-α in LPS-treated BV2 cells. The format is cell-based, mouse. On the set-up: unit not given here. The protocol:
as §1, §2

Another assay addresses AChE (Homo sapiens, UniProt P22303). As to the kind of experiment: Acetylcholinesterase inhibitory activity. The settings on record: read-out: acetylcholinesterase inhibitory activity (%). The format is biochemical. The protocol:
AChE and acetylthocholine iodine (ATC) were dissolved in 100 mM phosphate buffer (pH 8.0) to prepare 0.25 U/mL and 75 mM, respectively. […] 2.8 mL of phosphate buffer (100 mM, pH 8.0), 30 μL of AChE (0.25 U/mL), and 100 μL of DTNB were added to 30 μL of the extract, and were mixed. Then, the mixture was preincubated at 37° C. for 10 minutes. Then, 30 μL of substrate ATC was added thereto and was reacted at 37° C. for 3 minutes, and then the absorbance was measured at 412 nm. As a control group, 30 μL of 100 mM phosphate buffer (pH 8.0) was added instead of the extract, and then was measured.

The next assay deals with xanthine oxidase (Homo sapiens, UniProt P47989). As to the kind of experiment: Xanthine oxidase inhibitory activity. The format is biochemical. The settings on record: for inhibition at 10 µg/mL: 10 μg/mL; for inhibition at 20 µg/mL: 20 μg/mL; for inhibition at 40 µg/mL: 40 μg/mL; for inhibition at 80 µg/mL: 80 μg/mL; for inhibition at 160 µg/mL: 160 μg/mL; for inhibition at 320 µg/mL: 320 μg/mL; for inhibition at 640 µg/mL: 640 μg/mL. As for the experimental part:
0.2 ml of the substrate solution in which 2 mM xanthine was dissolved was added to 0.1 ml of a sample solution and 0.6 ml of 0.1 M potassium phosphate buffer at pH 7.5, and 0.1 ml of 0.2 unit/ml xanthine oxidase was added thereto, followed by reaction at 37° C. for 5 minutes. Then, 1 ml of 1N HCl was added to terminate the reaction, and then the absorbance of the uric acid produced in the reaction solution was measured at 292 nm. The inhibitory activity of xanthine oxidase was shown by the absorbance reduction rate of the addition group and the non-addition group of the sample solution.
Xanthine oxidase acts as a rate-limiting enzyme in the terminal oxidation of all purines and is an enzyme that acts as a source of oxidizing agents such as superoxide radicals and hydrogen peroxide. The superoxide anion inhibition by xanthine/xanthine oxidase enzymes is shown by superoxide anion scavenging activity and xanthine oxidase inhibition and has biologically important meaning through inhibition of gout and formation of free radicals. The superoxide radical scavenging effects of 10, 20, 40, 80, 160, 320, and 640 μg mL-1 of each fraction extract of the Fomes fomentarius were compared using butylated hydroxy anisole (BHA) as a positive control group.
The superoxide radical scavenging effects of 10, 20, 40, 80, 160, 320, and 640 μg mL-1 of the Acer tegmentosum maxim extract were compared using butylated hydroxy anisole (BHA) as a positive control group.
The superoxide radical scavenging effects of 10, 20, 40, 80, 160, 320, and 640 μg mL-1 of the berchemia berchemiaefolia extract were compared using butylated hydroxy anisole (BHA) as a positive control group.
The superoxide radical scavenging effects of 10, 20, 40, 80, 160, 320, and 640 μg mL-1 of the Lithospermum erythrorhizon extract were compared using butylated hydroxy anisole (BHA) as a positive control group.

Sequence of AChE (P22303 32-614): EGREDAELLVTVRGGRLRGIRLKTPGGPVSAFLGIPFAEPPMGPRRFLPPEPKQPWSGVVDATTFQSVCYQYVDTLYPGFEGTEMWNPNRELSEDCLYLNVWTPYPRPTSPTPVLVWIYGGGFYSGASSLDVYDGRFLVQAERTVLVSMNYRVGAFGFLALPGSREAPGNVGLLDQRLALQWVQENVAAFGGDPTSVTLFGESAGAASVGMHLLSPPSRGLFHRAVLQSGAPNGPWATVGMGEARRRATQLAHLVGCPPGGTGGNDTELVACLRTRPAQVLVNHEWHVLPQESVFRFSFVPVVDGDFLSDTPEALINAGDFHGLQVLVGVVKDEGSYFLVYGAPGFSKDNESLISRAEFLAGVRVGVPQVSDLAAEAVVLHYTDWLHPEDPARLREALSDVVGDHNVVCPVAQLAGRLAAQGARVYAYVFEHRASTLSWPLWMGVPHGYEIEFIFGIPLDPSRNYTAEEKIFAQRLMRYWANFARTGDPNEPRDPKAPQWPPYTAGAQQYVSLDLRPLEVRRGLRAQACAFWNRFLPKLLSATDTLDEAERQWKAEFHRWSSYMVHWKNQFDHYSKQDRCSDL
Sequence of xanthine oxidase (P47989 whole entry, species assumed): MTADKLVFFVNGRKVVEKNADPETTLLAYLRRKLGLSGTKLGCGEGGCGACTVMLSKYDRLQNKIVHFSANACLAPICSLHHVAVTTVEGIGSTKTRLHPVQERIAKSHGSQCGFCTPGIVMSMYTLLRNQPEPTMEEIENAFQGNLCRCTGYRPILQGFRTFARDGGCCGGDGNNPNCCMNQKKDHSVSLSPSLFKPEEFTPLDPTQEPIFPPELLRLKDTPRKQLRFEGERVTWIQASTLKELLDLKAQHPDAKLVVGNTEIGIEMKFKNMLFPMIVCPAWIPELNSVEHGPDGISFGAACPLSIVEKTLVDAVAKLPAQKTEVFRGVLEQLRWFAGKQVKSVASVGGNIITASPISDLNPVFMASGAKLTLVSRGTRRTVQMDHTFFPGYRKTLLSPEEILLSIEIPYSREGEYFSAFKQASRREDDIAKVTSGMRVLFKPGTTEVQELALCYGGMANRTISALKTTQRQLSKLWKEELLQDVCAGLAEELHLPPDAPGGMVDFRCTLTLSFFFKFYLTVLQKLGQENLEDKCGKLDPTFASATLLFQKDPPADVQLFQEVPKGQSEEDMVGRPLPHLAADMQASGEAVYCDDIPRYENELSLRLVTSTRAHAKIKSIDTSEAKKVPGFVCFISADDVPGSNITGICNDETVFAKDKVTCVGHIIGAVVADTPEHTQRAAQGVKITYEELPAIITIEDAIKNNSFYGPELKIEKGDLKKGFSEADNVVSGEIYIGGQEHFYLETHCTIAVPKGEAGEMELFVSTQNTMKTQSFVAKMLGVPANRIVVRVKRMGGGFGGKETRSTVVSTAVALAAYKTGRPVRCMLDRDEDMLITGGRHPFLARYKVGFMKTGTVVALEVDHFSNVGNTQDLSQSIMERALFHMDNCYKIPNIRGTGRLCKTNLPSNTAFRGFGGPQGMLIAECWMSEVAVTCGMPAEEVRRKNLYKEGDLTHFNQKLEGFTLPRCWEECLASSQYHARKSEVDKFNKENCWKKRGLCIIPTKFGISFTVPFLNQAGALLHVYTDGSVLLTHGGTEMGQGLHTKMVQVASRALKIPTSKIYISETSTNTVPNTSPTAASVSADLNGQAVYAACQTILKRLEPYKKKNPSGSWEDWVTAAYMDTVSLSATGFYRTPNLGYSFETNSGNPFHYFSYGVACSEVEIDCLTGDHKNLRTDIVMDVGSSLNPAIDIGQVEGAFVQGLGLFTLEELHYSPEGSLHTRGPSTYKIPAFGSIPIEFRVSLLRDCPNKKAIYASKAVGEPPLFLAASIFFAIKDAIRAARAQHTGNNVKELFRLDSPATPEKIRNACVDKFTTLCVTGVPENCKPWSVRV

With `CCCCCCCC/C=C\CCCCCCCCCCCCO` [docosenol, cis-13-Docosenol], the IL-6 level in the assay on IL-6 (5 μg/ml) worked out at 301.56±7.6; with IL-6 (20 μg/ml), 249.35±10.1; in the assay on IL-6 (50 μg/ml) it was 171.68±5.5; with IL-6 (100 μg/ml), 138.51±6.8. In addition, the TNF-α level is recorded as 60.12±7.4 in the assay with TNF-α (5 μg/ml), 40.58±6.2 with TNF-α (20 μg/ml), 28.15±4.1 with TNF-α (50 μg/ml) and 22.87±5.6 in the assay on TNF-α (100 μg/ml). Moreover, the inhibition at 10 µg/mL at AChE amounted to 18.1 ± 2.6%; against xanthine oxidase, 0.9 ± 0.3%. The inhibition at 20 µg/mL came to 23.1 ± 3.8% on AChE and 2.5 ± 0.5% against xanthine oxidase. In addition, the results for the inhibition at 40 µg/mL on AChE and on xanthine oxidase were 28.4 ± 1.9% and 3.6 ± 0.7%, respectively. Besides, the inhibition at 80 µg/mL was 35.9 ± 5.1% at AChE and 5.8 ± 1.1% on xanthine oxidase. Further, the inhibition at 160 µg/mL turned out to be 40.9 ± 6.8% on AChE and 7.7 ± 0.9% at xanthine oxidase. The inhibition at 320 µg/mL at AChE came to 55.1 ± 4.9%; on xanthine oxidase it was 9.6 ± 0.8%. Further, the inhibition at 640 µg/mL on AChE was 59.6 ± 6.6%; against xanthine oxidase it was 11.8 ± 1.4%.

`CCCCCCCCCCCCCCCCCC(C)=O` [nonadecanone, 2-Nonadecanone]: the IL-6 level in the assay with IL-6 (5 μg/ml) is 451.25±6.9; in the assay with IL-6 (20 μg/ml) it was 441.61±7.1; in the assay with IL-6 (50 μg/ml), 389.64±10.1; in the assay with IL-6 (100 μg/ml) it was 351.85±8.7. Also, the TNF-α level came out at 79.12±4.1 with TNF-α (5 μg/ml), 70.24±5.0 in the assay with TNF-α (20 μg/ml), 59.56±6.2 with TNF-α (50 μg/ml) and 50.47±3.1 in the assay on TNF-α (100 μg/ml). Further, the inhibition at 10 µg/mL on AChE was 11.6 ± 1.1%; at xanthine oxidase, 4.1 ± 0.5%. For the same compound, the inhibition at 20 µg/mL at AChE worked out at 18.9 ± 0.9%; at xanthine oxidase, 6.9 ± 0.8%. Also, the inhibition at 40 µg/mL at AChE turned out to be 23.4 ± 2.8%; against xanthine oxidase, 12.3 ± 1.1%. Further, the inhibition at 80 µg/mL on AChE was found to be 30.1 ± 1.8%; against xanthine oxidase it was 20.5 ± 0.9%. Besides, the inhibition at 160 µg/mL amounted to 35.1 ± 3.1% at AChE and 21.6 ± 0.7% at xanthine oxidase. The inhibition at 320 µg/mL turned out to be 41.5 ± 2.2% at AChE and 24.6 ± 1.1% against xanthine oxidase. Besides, the inhibition at 640 µg/mL turned out to be 41.9 ± 3.8% at AChE and 30.8 ± 1.4% against xanthine oxidase.
